In ChEMBL document CHEMBL1201862, “PubChem BioAssay data set” (2004):
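Step 1: Grow cells in 96-well plates. Step 2: Expose to compound for 48 hours at 5 concentrations. Step 3: Interpolate endpoints linearly; if unreached, use highest concentration. The concentration for 50% growth inhibition is given as GI50.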 Activity calls are given as the source filed them. Rule as the data show it: active = GI50 up to about 1.1 µM and inactive = higher.

What was measured:
Assay in all cases: NCI-60 cell line screen, 48 h
Hs-578T = test system: Hs-578T
T47D = test system: T47D
MDA-N = test system: MDA-N
KM-20L2 = test system: KM-20L2
XF498 = test system: XF498
DMS-114 = test system: DMS-114
DMS-273 = test system: DMS-273
HOP-18 = test system: HOP-18

Row | Compound | GI50 (Hs-578T) | GI50 (T47D) | GI50 (MDA-N) | GI50 (KM-20L2) | GI50 (XF498) | GI50 (DMS-114) | GI50 (DMS-273) | GI50 (HOP-18)
1 | C[N+](C)(C)CCN[N+]1(C)CCCc2ccccc21 (stereo not drawn) | > 100 µM (inactive) | 36.5 µM (inactive) | > 100 µM (inactive) | – | – | – | – | –
2 | C=C(C)CN(CC#N)CC(=C)C | 83.2 µM (inactive) | > 100 µM (inactive) | > 100 µM (inactive) | – | – | – | – | –
3 | O=C(CN1C(=O)c2ccccc2C1=O)C(O)CN1C(=O)c2ccccc2C1=O (stereo not drawn) | 34.7 µM (inactive) | 93.5 µM (inactive) | > 100 µM (inactive) | – | – | – | – | –
4 | COC1(OC)CC(CO)(CNc2nc(N)nc(Cl)c2/C=N\O)C1 | 22.7 µM (inactive) | – | 63.2 µM (inactive) | – | – | – | – | –
5 | O=C(CSC1=NC(=O)C2(NN1)c1ccccc1-c1ccccc12)NC(=S)Nc1ccccc1 | – | 2.34 µM (inactive) | > 10 µM (inactive) | – | – | – | – | –
6 | NC(=O)N/N=C1\CCCCc2ccccc21 | – | > 10 µM (inactive) | > 10 µM (inactive) | – | – | – | – | –
7 | CC(C)(C)/C(=N\Nc1nc2ccccc2[nH]1)c1ccccn1 | > 100 µM (inactive) | 21 µM (inactive) | > 100 µM (inactive) | – | – | – | – | –
8 | CC1=NNC(=O)C1C1C=C(c2c[nH]c3ccccc23)OC1=O (stereo not drawn) | > 100 µM (inactive) | > 100 µM (inactive) | > 100 µM (inactive) | – | – | – | – | –
9 | Clc1cc(Cl)c2cc3cccc[n+]3cc2c1Cl | 18.1 µM (inactive) | 7.64 µM (inactive) | 16.5 µM (inactive) | – | – | – | – | –
10 | COc1cccc(OCC(=N/NC(=O)c2ccncc2)/N=C/c2cccnc2)c1 | > 100 µM (inactive) | > 100 µM (inactive) | > 100 µM (inactive) | – | – | – | – | –
11 | CCCC(=O)N[C@@H](Cc1cc(I)c(O)c(I)c1)C(=O)NCCCNCCCCNCCCNC(=O)[C@@H](N)CCCN=C(N)N | – | – | – | > 100 µM (inactive) | > 100 µM (inactive) | > 100 µM (inactive) | 27.4 µM (inactive) | –
12 | CCOC(=O)C(C(=O)c1ccccc1C(=O)OC)=P(c1ccccc1)(c1ccccc1)c1ccccc1 | > 10 µM (inactive) | > 10 µM (inactive) | > 10 µM (inactive) | – | – | – | – | –
13 | O=C(OCCN=C1c2ccccc2CCc2ccccc21)c1cc([N+](=O)[O-])cc([N+](=O)[O-])c1 | > 31.6 µM (inactive) | – | > 31.6 µM (inactive) | – | – | – | – | –
14 | N#C/C(=C\c1cn(Cc2ccccc2)c2ccccc12)c1nn(-c2ccccc2)c(N)c1C#N | 25.6 µM (inactive) | 1.33 µM (inactive) | 23.2 µM (inactive) | – | – | – | – | –
15 | O=C1CCCC/C1=C1\C(=O)Nc2cc(F)ccc21 | – | – | – | > 100 µM (inactive) | > 100 µM (inactive) | > 100 µM (inactive) | > 100 µM (inactive) | > 100 µM (inactive)
16 | O=C(N/N=C\c1cccc2c([N+](=O)[O-])cccc12)Nc1ccccc1 | 13.2 µM (inactive) | 6.04 µM (inactive) | 13.1 µM (inactive) | – | – | – | – | –
17 | CC[C@@]1(C)CCC2c3ccc(O)cc3CC[C@H]2C1C (stereo partly drawn) | 18.8 µM (inactive) | 18.1 µM (inactive) | 13.1 µM (inactive) | – | – | – | – | –
18 | CC(=O)CC(=O)ON(C)C(C)=O | – | – | – | > 100 µM (inactive) | > 100 µM (inactive) | > 100 µM (inactive) | > 100 µM (inactive) | –
19 | CC(=O)OCC1(C)C(O)CCC2(C)C1CCC1CC3CC12CCC3(O)CO (stereo not drawn) | > 53.6 µM (inactive) | > 100 µM (inactive) | > 100 µM (inactive) | – | – | – | – | –
20 | O=C1/C(=C/c2ccccc2)CN(C(=O)OCC(Cl)(Cl)Cl)C/C1=C\c1ccccc1 | – | – | – | 2.44 µM (inactive) | – | 1.95 µM (inactive) | 1.5 µM (inactive) | 3.57 µM (inactive)
21 | OCCOCn1nncc1Cn1ncc2c(O)ncnc21 | > 100 µM (inactive) | > 100 µM (inactive) | – | – | – | – | – | –
22 | C[C@]12C(=O)OC[C@H](c3ccccc3)N1C(=O)N(Cc1ccccc1)[C@@H]2CO | > 100 µM (inactive) | – | > 100 µM (inactive) | – | – | – | – | –
23 | Cc1c(C(=O)c2ccc(N)c3ccccc23)c2ccccc2n1CCN1CCOCC1 | 0.759 µM (active) | 31.5 µM (inactive) | 16.3 µM (inactive) | – | – | – | – | –
24 | Nc1ncnc2ccc(Sc3ccc4ncnc(N)c4c3)cc12 | > 100 µM (inactive) | > 100 µM (inactive) | – | – | – | – | – | –
25 | CCc1cc2c(oc3cc(C)ccc32)c(=O)n1C | > 10 µM (inactive) | > 10 µM (inactive) | > 10 µM (inactive) | – | – | – | – | –
26 | COc1ccc2c(O)c(S(=O)(=O)c3ccc(C)cc3)c(=O)oc2c1OC | > 100 µM (inactive) | > 100 µM (inactive) | > 100 µM (inactive) | – | – | – | – | –
27 | COc1ccc2c(c1)CC[C@@H]1C2CC[C@]2(C)C(=N\O)/C(=N/O)CC12 (stereo partly drawn) | – | – | – | 6.21 µM (inactive) | 14.5 µM (inactive) | – | 12 µM (inactive) | 15.7 µM (inactive)
28 | Clc1ccccc1C1=NN(c2ccccc2)C2c3cc(Br)ccc3OCC12 (stereo not drawn) | – | – | – | > 100 µM (inactive) | > 100 µM (inactive) | > 100 µM (inactive) | > 100 µM (inactive) | > 100 µM (inactive)
29 | COC(=O)C1=COc2c(n(C)c3ccccc23)-c2ccccc21 | > 100 µM (inactive) | > 100 µM (inactive) | > 100 µM (inactive) | – | – | – | – | –
